Laboratory results reported in PMC9241695, “Selective Metal Chelation by a Thiosemicarbazone Derivative Interferes with Mitochondrial Respiration and Ribosome Biogenesis in Candida albicans” (Microbiology Spectrum, 2022).
In brackets after ≈: the same amount, converted by molar mass.

Tests used:
Test in all cases: Antifungal susceptibility testing, microbroth dilution MIC
Assay type in all cases: cell-based
C. neoformans H99 = conditions: Cryptococcus neoformans, H99, 48 h, read-out: MIC (μg/mL) against fungi H99
From the text: (§1) Compound library. The thiosemicarbazone derivatives Triapine and COTI-2 were purchased from Med Chem Express (MCE). The other 87 thiosemicarbazones used in this study were previously synthesized by our collaborators (1, 2). Their structures are shown in Table 1 and Table S1 to help the reader clearly understand the relationship between structure and activity.
(§2) Strains and culture conditions. Clinically derived C. albicans isolates, including G5, F5, and Gu5, were kindly provided by Professor Joachim Morschhäuser of the University of Würzburg. Other clinical C. albicans isolates were kindly donated by Professor Qingguo Qi of Shandong University and Qianfoshan Hospital of Shandong Province Other Candida strains were obtained from Jinan Central Hospital.
(§3) The zap1 mutant and its complemented strain were kindly provided by Professor Aaron P. Mitchell of Carnegie Mellon University (3). The C. neoformans strains used in this study was kindly donated by Professor Guojian Liao of Southwest University and A. fumigatus strain used in this study was provided by Professor Ling Lu of Nanjing Normal University. […]
(§4) Antifungal susceptibility testing. To determine in vitro antifungal activities, the microbroth dilution method was carried out in RPMI1640 medium according to the guidelines of the Clinical and Laboratory Standards Institute (4, 5). The initial concentration in RPMI1640 medium was 1 × 10^3 CFU/mL for the C. albicans and C. neoformans suspensions but 1 × 10^4 CFU/mL for A. fumigatus. The range of final drug concentrations was 0.0156–64 μg/mL. The plates were incubated at35°C for 24 […]
(§5) h (for C. albicans, C. krusei, C. tropicalis, C. parapsilosis) or 48 h (for C. neoformans, A. fumigatus). The MIC was determined based on visible growth inhibition compared with the control. All experiments were performed in duplicate. […]

A. fumigatus AF293 = conditions: Aspergillus fumigatus, AF293, 48 h, read-out: MIC (μg/mL) against fungi AF293
From the text: as §1, §2, §3, §4, §5

C. albicans SC5314 = conditions: Candida albicans, SC5314, 24 h, read-out: MIC (μg/mL) against fungi SC5314
From the text: as §1, §2
as §3, with “University. Before in vitro and in vivo experiments, all C. albicans strains were grown on YPD agar plates. After culturing at 30°C for 24 h, colonies of each strain were cultured in liquid YPD medium at 30°C with continuous shaking” for “University.”
as §4, §5

| SMILES | MIC (C. neoformans H99) [µg/mL] | MIC (A. fumigatus AF293) [µg/mL] | MIC (C. albicans SC5314) [µg/mL] |
| --- | --- | --- | --- |
| C/C(=N\NC(=S)Nc1ccccc1)c1ccccn1 [Compound 19ac] | 0.25 (≈ 0.925 µM) | 16 (≈ 59.2 µM) | 2 (≈ 7.4 µM) |
| COc1ccc(NC(=S)N/N=C(\C)c2ccccn2)cc1 [Compound 19s] | 0.25 (≈ 0.832 µM) | 8 (≈ 26.6 µM) | 2 (≈ 6.66 µM) |
